Data on 2 molecules can be found in patent publication US20180055812A1, “METHOD AND COMPOSITIONS FOR TREATMENT OF CANCER” (priority 2008, published 2018).

For one assay, the system named is H460 cells. In kind it is cell-based.
Another assay relates to A549 cells. In kind it is cell-based.
The mark [1] stands for this setting: H460 cells, MTT, 5 days incubation.
[2] abbreviates: A549 cells, MTT, 5 days incubation.

Like-named read-outs stand apart in the source and are kept apart here.

Consider `N.N.[Cl][Pt][Cl]` [Cisplatin, cis-diamminedichloroplatinum (II), reference compound], for which the IC75 in the assay on H460 cells (setting [1]) stood at 1.7 µM; with A549 cells (setting [2]), 2 µM. The IC90 in the assay with H460 cells (setting [1]) was 2.5 µM; in the assay on A549 cells (setting [2]), 4 µM. In the assay on H460 cells (H460 non-small cell lung cancer cells, MTT, 5 days incubation), this molecule returned an IC50 of 1 µM.

Regarding `O=[As][O-].[Na+]` [Sodium Meta Arsenite, sodium meta arsenite], in the assay with H460 cells, the IC50 amounted to 10 µM, the IC75 was 20 µM and the IC90 was determined as 30 µM. In the assay with A549 cells, this molecule gave an IC50 of 13 µM, a 75% effect concentration (IC75) of 19 µM and an IC90 of 17 µM.

Usually IC75 stands for the concentration at which the effect reaches the 75% level. High values mean a need for much substance, low ones an effect from little substance. As usually defined, the IC90 is the point of the concentration-response curve where the effect stands at 90%. A low value points to greater potency. The IC50 is the concentration at which inhibition is half-maximal. The low end stands for inhibition by little substance, the high end for a need for much substance.
